# Results reported in patent US9822103B2, “Inhibitors of lysine methyl transferase” (priority 2013, dated 2017).
# Biological target: recombinant EZH2-641F complex (EZH2 Y641F/EED/SUZ12/RbAp48/AEBP2) (Homo sapiens (Human), UniProt Q15910, Y641F)
# Assay: EZH2 Histone Methyl Transferase Assay (scintillation proximity assay)
# Format: biochemical
# Conditions: 350 nM histone peptide substrate, 500 nM 3H-SAM, 3 hours room temperature
# Method: EZH2 Histone Methyl Transferase Assay
# The effectiveness of compounds of the present invention as inhibitors of histone methyl transferases can be readily tested by assays known to those skilled in the art. For example, in vitro histone methyl transferase assays may be conducted with a relevant purified histone methyl transferase and an appropriate synthetic substrate to determine the inhibitory activity of the compounds. Assays for inhibition of EZH2 by the instant compounds were performed in 384-well plates with reaction mixtures containing 350 nM of histone peptide substrate (ATKAAR-K(Me2)-SAPATGGVKKPHRYRPG-GK(Biotin), 500 nM S-[methyl-^3H]adenosyl-L-methionine (55-85 Ci/mmol), 50 mM Tris-HCl (pH 9.0), 50 mM NaCl, 1 mM dithiothreitol, Tween-20 at 0.01% and fatty-acid free bovine serum albumin at 0.01%, and recombinant EZH2-641F complex (EZH2 Y641F/EED/SUZ12/RbAp48/AEBP2) at 5 nM (>98% purity, BPS Bioscience) or 15 nM (50% purity, in-house). Reaction mixtures were incubated at room temperature for 3 hours, and the reactions were terminated by 0.005% poly-L-lysine solution in 20 mM Tris-HCl (pH 7.5) and 150 mM NaCl. Reaction products were captured by binding to strepavidin-conjugated imaging beads. Incorporation of radioactive methyl group into the histone peptide substrate was determined in Leadseeker (GE Healthcare) by means of scintillation proximity assay. Dose response curves were generated to determine the concentration required to inhibit 50% of methyl transferase activity (EC50). Compounds were dissolved at 10 mM in dimethylsulfoxide (DMSO) and evaluated at eleven concentrations. EC50 values were derived by non-linear regression analysis.
# Sequence of recombinant EZH2-641F complex (EZH2 Y641F/EED/SUZ12/RbAp48/AEBP2) (Q15910 whole entry Y641F): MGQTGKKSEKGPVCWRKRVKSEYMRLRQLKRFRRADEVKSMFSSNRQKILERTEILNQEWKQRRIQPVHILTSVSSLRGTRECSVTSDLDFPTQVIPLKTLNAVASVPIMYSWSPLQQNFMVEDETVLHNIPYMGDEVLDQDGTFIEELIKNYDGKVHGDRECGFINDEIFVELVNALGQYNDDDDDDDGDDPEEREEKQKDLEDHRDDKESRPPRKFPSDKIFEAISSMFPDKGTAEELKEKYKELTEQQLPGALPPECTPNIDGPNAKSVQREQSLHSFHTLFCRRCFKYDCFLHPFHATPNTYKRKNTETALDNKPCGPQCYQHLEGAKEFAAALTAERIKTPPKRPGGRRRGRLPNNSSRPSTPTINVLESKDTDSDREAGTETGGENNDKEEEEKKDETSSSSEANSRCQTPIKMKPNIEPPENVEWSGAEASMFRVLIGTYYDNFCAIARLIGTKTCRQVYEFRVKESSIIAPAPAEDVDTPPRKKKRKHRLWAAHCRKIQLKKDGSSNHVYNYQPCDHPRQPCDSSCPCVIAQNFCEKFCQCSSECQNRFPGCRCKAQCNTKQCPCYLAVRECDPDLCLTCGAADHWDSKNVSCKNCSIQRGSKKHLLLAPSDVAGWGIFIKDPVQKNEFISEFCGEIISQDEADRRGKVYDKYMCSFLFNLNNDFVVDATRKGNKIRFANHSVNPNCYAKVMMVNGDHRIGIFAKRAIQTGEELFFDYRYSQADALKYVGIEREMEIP
# Sequence of recombinant EZH2-641F complex (EZH2 Y641F/EED/SUZ12/RbAp48/AEBP2) (O75530 whole entry partner): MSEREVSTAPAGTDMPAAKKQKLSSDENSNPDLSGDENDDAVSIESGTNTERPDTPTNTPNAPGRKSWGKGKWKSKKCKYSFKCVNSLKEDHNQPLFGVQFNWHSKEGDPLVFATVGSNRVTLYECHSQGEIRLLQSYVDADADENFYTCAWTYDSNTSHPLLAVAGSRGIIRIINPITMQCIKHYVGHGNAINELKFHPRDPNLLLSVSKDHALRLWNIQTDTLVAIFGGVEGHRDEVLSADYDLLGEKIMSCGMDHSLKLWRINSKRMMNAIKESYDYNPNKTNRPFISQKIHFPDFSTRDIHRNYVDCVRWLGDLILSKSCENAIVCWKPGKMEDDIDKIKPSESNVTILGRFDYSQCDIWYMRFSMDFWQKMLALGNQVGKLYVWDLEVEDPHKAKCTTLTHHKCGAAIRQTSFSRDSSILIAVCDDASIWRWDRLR
# Sequence of recombinant EZH2-641F complex (EZH2 Y641F/EED/SUZ12/RbAp48/AEBP2) (Q15022 whole entry partner): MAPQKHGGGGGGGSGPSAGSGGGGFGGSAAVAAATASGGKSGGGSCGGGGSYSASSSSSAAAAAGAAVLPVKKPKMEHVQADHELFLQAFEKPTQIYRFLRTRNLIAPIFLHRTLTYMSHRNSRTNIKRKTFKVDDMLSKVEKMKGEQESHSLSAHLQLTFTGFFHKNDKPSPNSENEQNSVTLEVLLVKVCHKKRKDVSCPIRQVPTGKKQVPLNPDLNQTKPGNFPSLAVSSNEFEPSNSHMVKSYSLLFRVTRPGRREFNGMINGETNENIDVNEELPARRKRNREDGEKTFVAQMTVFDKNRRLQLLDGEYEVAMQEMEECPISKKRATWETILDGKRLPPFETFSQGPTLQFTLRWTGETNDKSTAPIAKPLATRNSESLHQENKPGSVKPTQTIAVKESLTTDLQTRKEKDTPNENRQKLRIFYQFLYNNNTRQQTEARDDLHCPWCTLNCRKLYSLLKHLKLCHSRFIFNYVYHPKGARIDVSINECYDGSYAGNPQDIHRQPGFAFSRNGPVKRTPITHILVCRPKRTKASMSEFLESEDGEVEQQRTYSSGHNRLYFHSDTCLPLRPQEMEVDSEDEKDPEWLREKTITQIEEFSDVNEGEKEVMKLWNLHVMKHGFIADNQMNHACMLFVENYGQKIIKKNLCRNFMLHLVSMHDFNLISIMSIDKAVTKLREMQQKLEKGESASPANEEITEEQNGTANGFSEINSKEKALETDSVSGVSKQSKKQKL
# Sequence of recombinant EZH2-641F complex (EZH2 Y641F/EED/SUZ12/RbAp48/AEBP2) (Q09028 whole entry partner): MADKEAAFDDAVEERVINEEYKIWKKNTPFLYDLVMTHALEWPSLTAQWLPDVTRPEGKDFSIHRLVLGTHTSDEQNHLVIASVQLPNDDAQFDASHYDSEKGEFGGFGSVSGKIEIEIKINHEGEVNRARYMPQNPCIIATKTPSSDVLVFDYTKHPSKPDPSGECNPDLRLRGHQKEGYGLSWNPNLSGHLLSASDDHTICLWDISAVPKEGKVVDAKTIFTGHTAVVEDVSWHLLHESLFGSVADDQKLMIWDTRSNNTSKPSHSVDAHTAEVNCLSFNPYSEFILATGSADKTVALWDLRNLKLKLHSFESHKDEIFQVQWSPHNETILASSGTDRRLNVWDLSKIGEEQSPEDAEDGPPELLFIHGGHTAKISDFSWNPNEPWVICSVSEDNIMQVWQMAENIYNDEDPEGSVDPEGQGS
# Sequence of recombinant EZH2-641F complex (EZH2 Y641F/EED/SUZ12/RbAp48/AEBP2) (Q6ZN18 whole entry partner): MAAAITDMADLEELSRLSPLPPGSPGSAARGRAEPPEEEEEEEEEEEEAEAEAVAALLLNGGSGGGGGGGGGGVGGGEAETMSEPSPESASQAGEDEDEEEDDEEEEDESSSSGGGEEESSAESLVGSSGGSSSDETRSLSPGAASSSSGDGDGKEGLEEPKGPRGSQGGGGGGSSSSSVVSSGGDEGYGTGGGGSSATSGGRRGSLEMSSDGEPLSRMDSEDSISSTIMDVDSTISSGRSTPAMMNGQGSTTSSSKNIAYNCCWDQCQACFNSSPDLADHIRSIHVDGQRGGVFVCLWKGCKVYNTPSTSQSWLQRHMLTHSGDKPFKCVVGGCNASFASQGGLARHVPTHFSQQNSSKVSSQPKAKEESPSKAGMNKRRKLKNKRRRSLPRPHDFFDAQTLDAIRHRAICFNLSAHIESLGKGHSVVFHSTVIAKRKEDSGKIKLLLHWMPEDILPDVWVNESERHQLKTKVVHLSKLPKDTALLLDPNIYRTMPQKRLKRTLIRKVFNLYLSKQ
row,IC50,Structure (SMILES)
1,> 1000 nM,"COc1ccc(-c2cc(C(=O)NCc3c(C)cc(C)[nH]c3=O)cc3c2OCCC(C)C3)cn1 (centres unmarked) [Example 46, N-((4,6-Dimethyl-2-oxo-1,2-dihydropyridin-3-yl)methyl)-9-(6-methoxypyridin-3-yl)-4-methyl-2,3,4,5-tetrahydrobenzo[b]oxepine-7-carboxamide]"
2,> 1000 nM,"COc1ccc(-c2cc(C(=O)NCc3c(C)cc(C)[nH]c3=O)cc3c2OC(C)CCC3)cn1 (centres unmarked) [Example 52, N-((4,6-Dimethyl-2-oxo-1,2-dihydropyridin-3-yl)methyl)-9-(6-methoxypyridin-3-yl)-2-methyl-2,3,4,5-tetrahydrobenzo[b]oxepine-7-carboxamide]"
3,> 1000 nM,"COc1ccc(-c2cc(C(=O)NCc3c(C)cc(C)[nH]c3=O)cc3c2OCC(C)CC3)cn1 (centres unmarked) [Example 54, N-((4,6-dimethyl-2-oxo-1,2-dihydropyridin-3-yl)methyl)-9-(6-methoxypyridin-3-yl)-3-methyl-2,3,4,5-tetrahydrobenzo[b]oxepine-7-carboxamide]"
4,> 1000 nM,"C=CC1(C)Cc2cc(C(=O)NCc3c(C)cc(C)[nH]c3=O)cc(-c3ccc(OC)nc3)c2O1 (centres unmarked) [Example 56, N-((4,6-Dimethyl-2-oxo-1,2-dihydropyridin-3-yl)methyl)-7-(6-methoxypyridin-3-yl)-2-methyl-2-vinyl-2,3-dihydrobenzofuran-5-carboxamide]"
5,< 500 nM,"C=CC1(C)Cc2cc(C(=O)NCc3c(C)cc(C)[nH]c3=O)cc(-c3ccc(N4CCNCC4)nc3)c2O1 (centres unmarked) [Example 59, N-((4,6-Dimethyl-2-oxo-1,2-dihydropyridin-3-yl)methyl)-2-methyl-7-(6-(piperazin-1-yl)pyridin-3-yl)-2-vinyl-2,3-dihydrobenzofuran-5-carboxamide]"
6,> 1000 nM,"CCC1(C)Cc2cc(C(=O)NCc3c(C)cc(C)[nH]c3=O)cc(-c3ccc(OC)nc3)c2O1 (centres unmarked) [Example 61, N-((4,6-Dimethyl-2-oxo-1,2-dihydropyridin-3-yl)methyl)-2-ethyl-7-(6-methoxypyridin-3-yl)-2-methyl-2,3-dihydrobenzofuran-5-carboxamide]"
7,< 500 nM,"CCC1(C)Cc2cc(C(=O)NCc3c(C)cc(C)[nH]c3=O)cc(-c3ccc(N4CCNCC4)nc3)c2O1 (centres unmarked) [Example 62, N-((4,6-Dimethyl-2-oxo-1,2-dihydropyridin-3-yl)methyl)-2-ethyl-2-methyl-7-(6-(piperazin-1-yl)pyridin-3-yl)-2,3-dihydrobenzofuran-5-carboxamide]"
8,> 1000 nM,"Cc1cc(C)c(CNC(=O)c2cc(Br)c3c(c2)CC2(CCCC2)O3)c(=O)[nH]1 [Example 70, 7-Bromo-N-((4,6-dimethyl-2-oxo-1,2-dihydropyridin-3-yl)methyl)-3H-spiro[benzofuran-2,1′-cyclopentane]-5-carboxamide]"
9,> 1000 nM,"COc1ccc(-c2cc(C(=O)NCc3c(C)cc(C)[nH]c3=O)cc3c2OC2(CCCC2)C3)cn1 [Example 71, N-((4,6-Dimethyl-2-oxo-1,2-dihydropyridin-3-yl)methyl)-7-(6-methoxypyridin-3-yl)-3H-spiro[benzofuran-2,1′-cyclopentane]-5-carboxamide]"
10,< 500 nM,"Cc1cc(C)c(CNC(=O)c2cc3c(c(-c4ccc(N5CCNCC5)nc4)c2)OC2(CCCC2)C3)c(=O)[nH]1 [Example 72, N-((4,6-Dimethyl-2-oxo-1,2-dihydropyridin-3-yl)methyl)-7-(6-(piperazin-1-yl)pyridin-3-yl)-3H-spiro[benzofuran-2,1′-cyclopentane]-5-carboxamide]"
11,> 1000 nM,"Cc1cc(C)c(CNC(=O)c2cc3c(c(-c4cnc(N5CCN(C(=O)OC(C)(C)C)CC5)nc4)c2)OC2(CCCC2)C3)c(=O)[nH]1 [Example 73, tert-Butyl 4-(5-(5-(((4,6-dimethyl-2-oxo-1,2-dihydropyridin-3-yl)methyl)carbamoyl)-3H-spiro[benzofuran-2,1′-cyclopentan]-7-yl)pyrimidin-2-yl)piperazine-1-carboxylate]"
12,> 1000 nM,"Cc1cc(C)c(CNC(=O)c2cc3c(c(-c4ccc(CN5CCCCC5)cc4)c2)OC2(CCCC2)C3)c(=O)[nH]1 [Example 74, N-((4,6-Dimethyl-2-oxo-1,2-dihydropyridin-3-yl)methyl)-7-(4-(piperidin-1-ylmethyl)phenyl)-3H-spiro[benzofuran-2,1′-cyclopentane]-5-carboxamide]"
13,> 1000 nM,"COc1ccc(-c2cc(C(=O)NCc3c(C)cc(C)[nH]c3=O)cc3c2OCC32CCCC2)cn1 [Example 76, N-((4,6-Dimethyl-2-oxo-1,2-dihydropyridin-3-yl)methyl)-7-(6-methoxypyridin-3-yl)-2H-spiro[benzofuran-3,1′-cyclopentane]-5-carboxamide]"

# More lines, now with the values behind:
row,Structure (SMILES),IC50
1,"Cc1cc(C)c(CNC(=O)c2cc(Br)c3c(c2)CC(C)CCO3)c(=O)[nH]1 (centres unmarked) [Example 45, 9-Bromo-N-((4,6-dimethyl-2-oxo-1,2-dihydropyridin-3-yl)methyl)-4-methyl-2,3,4,5-tetrahydrobenzo[b]oxepine-7-carboxamide]",> 1000 nM
2,"Cc1cc(C)c(CNC(=O)c2ccc3c(c2)C=CCC(C)O3)c(=O)[nH]1 (centres unmarked) [Example 47, N-((4,6-Dimethyl-2-oxo-1,2-dihydropyridin-3-yl)methyl)-2-methyl-2,3-dihydrobenzo[b]oxepine-7-carboxamide]",> 1000 nM
3,"Cc1cc(C)c(CNC(=O)c2ccc3c(c2)CCCC(C)O3)c(=O)[nH]1 (centres unmarked) [Example 48, N-((4,6-Dimethyl-2-oxo-1,2-dihydropyridin-3-yl)methyl)-2-methyl-2,3,4,5-tetrahydrobenzo[b]oxepine-7-carboxamide]",> 1000 nM
4,"Cc1cc(C)c(CNC(=O)c2cc(Br)c3c(c2)CCCC(C)O3)c(=O)[nH]1 (centres unmarked) [Example 49, 9-Bromo-N-((4,6-dimethyl-2-oxo-1,2-dihydropyridin-3-yl)methyl)-2-methyl-2,3,4,5-tetrahydrobenzo[b]oxepine-7-carboxamide]",> 1000 nM
5,"Cc1cc(C)c(CNC(=O)c2cc3c(c(-c4ccc(CN5CCOCC5)cc4)c2)OC(C)CCC3)c(=O)[nH]1 (centres unmarked) [Example 50, N-((4,6-Dimethyl-2-oxo-1,2-dihydropyridin-3-yl)methyl)-2-methyl-9-(4-(morpholinomethyl)phenyl)-2,3,4,5-tetrahydrobenzo[b]oxepine-7-carboxamide]",> 1000 nM
6,"Cc1cc(C)c(CNC(=O)c2cc3c(c(-c4ccc(N5CCNCC5)nc4)c2)OC(C)CCC3)c(=O)[nH]1 (centres unmarked) [Example 51, N-((4,6-Dimethyl-2-oxo-1,2-dihydropyridin-3-yl)methyl)-2-methyl-9-(6-(piperazin-1-yl)pyridin-3-yl)-2,3,4,5-tetrahydrobenzo[b]oxepine-7-carboxamide]",> 1000 nM
7,"Cc1cc(C)c(CNC(=O)c2cc(Br)c3c(c2)CCC(C)CO3)c(=O)[nH]1 (centres unmarked) [Example 53, 9-Bromo-N-((4,6-dimethyl-2-oxo-1,2-dihydropyridin-3-yl)methyl)-3-methyl-2,3,4,5-tetrahydrobenzo[b]oxepine-7-carboxamide]",> 1000 nM
8,"Cc1cc(C)c(CNC(=O)c2cc3c(c(-c4ccc(N5CCNCC5)nc4)c2)OCC(C)CC3)c(=O)[nH]1 (centres unmarked) [Example 55, N-((4,6-Dimethyl-2-oxo-1,2-dihydropyridin-3-yl)methyl)-3-methyl-9-(6-(piperazin-1-yl)pyridin-3-yl)-2,3,4,5-tetrahydrobenzo[b]oxepine-7-carboxamide]",> 1000 nM
9,"C=CC1(C)Cc2cc(C(=O)NCc3c(C)cc(C)[nH]c3=O)cc(Br)c2O1 (centres unmarked) [Example 57, 7-Bromo-N-((4,6-dimethyl-2-oxo-1,2-dihydropyridin-3-yl)methyl)-2-methyl-2-vinyl-2,3-dihydrobenzofuran-5-carboxamide]",> 1000 nM
10,"C=CC1(C)Cc2cc(C(=O)NCc3c(C)cc(C)[nH]c3=O)cc(-c3ccc(CN4CCOCC4)cc3)c2O1 (centres unmarked) [Example 58, N-((4,6-Dimethyl-2-oxo-1,2-dihydropyridin-3-yl)methyl)-2-methyl-7-(4-(morpholinomethyl)phenyl)-2-vinyl-2,3-dihydrobenzofuran-5-carboxamide]",> 1000 nM
11,"C=CC1(C)Cc2cc(C(=O)NCc3c(C)cc(C)[nH]c3=O)cc(-c3cnc(N4CCN(C(=O)OC(C)(C)C)CC4)nc3)c2O1 (centres unmarked) [Example 60, t-Butyl 4-(5-(5-(((4,6-dimethyl-2-oxo-1,2-dihydropyridin-3-yl)methyl)carbamoyl)-2-methyl-2-vinyl-2,3-dihydrobenzofuran-7-yl)pyrimidin-2-yl)piperazine-1-carboxylate]",> 1000 nM
12,"CCC1(C)Cc2cc(C(=O)NCc3c(C)cc(C)[nH]c3=O)cc(-c3ccc(C)cc3)c2O1 (centres unmarked) [Example 63, N-((4,6-Dimethyl-2-oxo-1,2-dihydropyridin-3-yl)methyl)-2-ethyl-2-methyl-7-(p-tolyl)-2,3-dihydrobenzofuran-5-carboxamide]",> 1000 nM
13,"Cc1cc(C)c(CNC(=O)c2cc(Br)c3c(c2)C2(CCCC2)CO3)c(=O)[nH]1 [Example 75, 7-Bromo-N-((4,6-dimethyl-2-oxo-1,2-dihydropyridin-3-yl)methyl)-2H-spiro[benzofuran-3,1′-cyclopentane]-5-carboxamide]",> 1000 nM
